Columns and labels:
Test in all cases: biochemical
Set-up in all cases: KinomeScan competition binding panel (DiscoveRx), percent of control at 1 uM
Settings in all cases: read-out: Percent Control
[1] = molecular target: CAMK1G (Homo sapiens, UniProt Q96NX5)
Summary of the method: (§1)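 KinomeScan technology used to profile binding across a panel of 456 kinases and mutants.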

[2] = molecular target: CAMKK2 (Homo sapiens, UniProt Q96RR4)
Summary of the method: as §1

[3] = molecular target: T1, CDC2L2 (Homo sapiens, UniProt Q9UQ88)
T1 construct: gene CDK11A
Summary of the method: as §1

[4] = molecular target: EPHA1 (Homo sapiens, UniProt P21709)
Summary of the method: as §1

[5] = molecular target: EPHA5 (Homo sapiens, UniProt P54756)
Summary of the method: as §1

[6] = molecular target: ERBB2 (Homo sapiens, UniProt P04626)
Summary of the method: as §1

[7] = molecular target: HIPK2 (Homo sapiens, UniProt Q9H2X6)
Chain of HIPK2 (Q9H2X6 whole entry): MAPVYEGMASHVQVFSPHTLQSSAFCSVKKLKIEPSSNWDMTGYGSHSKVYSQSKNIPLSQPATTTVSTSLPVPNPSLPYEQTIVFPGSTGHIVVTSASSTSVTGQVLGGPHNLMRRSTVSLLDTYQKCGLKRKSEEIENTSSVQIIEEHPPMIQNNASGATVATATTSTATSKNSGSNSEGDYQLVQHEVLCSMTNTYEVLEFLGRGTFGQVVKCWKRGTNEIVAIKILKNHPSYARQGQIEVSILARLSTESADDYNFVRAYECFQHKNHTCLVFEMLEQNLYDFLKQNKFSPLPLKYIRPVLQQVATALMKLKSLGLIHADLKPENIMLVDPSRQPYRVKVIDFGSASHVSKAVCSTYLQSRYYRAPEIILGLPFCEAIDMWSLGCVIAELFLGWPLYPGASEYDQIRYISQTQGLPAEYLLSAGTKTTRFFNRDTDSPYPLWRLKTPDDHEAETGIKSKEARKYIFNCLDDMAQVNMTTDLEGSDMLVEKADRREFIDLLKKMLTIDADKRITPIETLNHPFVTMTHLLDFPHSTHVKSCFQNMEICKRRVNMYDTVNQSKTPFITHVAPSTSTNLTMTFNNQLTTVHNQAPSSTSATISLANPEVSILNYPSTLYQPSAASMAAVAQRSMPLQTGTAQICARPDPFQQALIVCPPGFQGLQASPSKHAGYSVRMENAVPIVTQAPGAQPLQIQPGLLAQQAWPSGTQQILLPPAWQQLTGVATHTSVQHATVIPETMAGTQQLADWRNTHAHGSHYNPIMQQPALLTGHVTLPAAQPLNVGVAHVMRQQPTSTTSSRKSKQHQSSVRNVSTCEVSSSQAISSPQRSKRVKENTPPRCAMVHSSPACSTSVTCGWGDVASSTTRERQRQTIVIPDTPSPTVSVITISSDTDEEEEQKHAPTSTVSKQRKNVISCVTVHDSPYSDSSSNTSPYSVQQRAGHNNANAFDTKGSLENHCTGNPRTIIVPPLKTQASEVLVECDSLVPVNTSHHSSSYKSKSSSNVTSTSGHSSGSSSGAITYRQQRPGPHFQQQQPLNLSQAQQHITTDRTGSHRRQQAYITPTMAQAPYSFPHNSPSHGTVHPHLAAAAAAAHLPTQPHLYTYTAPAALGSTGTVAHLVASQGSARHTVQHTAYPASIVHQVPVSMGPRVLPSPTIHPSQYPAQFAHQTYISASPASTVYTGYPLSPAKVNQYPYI
Summary of the method: as §1

[8] = molecular target: T2, ICK (Homo sapiens, UniProt Q9UPZ9)
T2 construct: gene CILK1
T2 sequence (Q9UPZ9 whole entry): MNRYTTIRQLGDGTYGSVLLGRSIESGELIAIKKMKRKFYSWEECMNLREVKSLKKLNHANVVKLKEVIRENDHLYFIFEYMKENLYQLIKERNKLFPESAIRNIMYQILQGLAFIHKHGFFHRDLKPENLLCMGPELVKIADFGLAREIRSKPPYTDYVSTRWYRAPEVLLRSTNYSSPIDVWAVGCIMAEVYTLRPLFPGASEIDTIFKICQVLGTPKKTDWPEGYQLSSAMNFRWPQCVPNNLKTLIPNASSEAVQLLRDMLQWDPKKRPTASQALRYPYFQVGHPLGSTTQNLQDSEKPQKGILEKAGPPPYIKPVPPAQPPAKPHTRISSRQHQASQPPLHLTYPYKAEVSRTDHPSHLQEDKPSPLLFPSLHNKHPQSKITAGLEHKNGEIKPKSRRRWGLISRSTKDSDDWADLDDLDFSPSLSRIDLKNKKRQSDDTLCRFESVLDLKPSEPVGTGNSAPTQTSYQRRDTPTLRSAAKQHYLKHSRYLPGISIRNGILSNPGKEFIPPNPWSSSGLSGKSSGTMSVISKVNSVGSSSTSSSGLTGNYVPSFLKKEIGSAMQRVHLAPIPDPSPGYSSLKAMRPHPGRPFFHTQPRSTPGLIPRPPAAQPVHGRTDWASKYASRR
Summary of the method: as §1

[9] = molecular target: IGF1R (Homo sapiens, UniProt P08069)
Summary of the method: as §1

[10] = molecular target: LCK (Homo sapiens, UniProt P06239)
Summary of the method: as §1

[11] = molecular target: T3, MEK6 (Homo sapiens, UniProt P52564)
T3 construct: gene MAP2K6
Summary of the method: as §1

[12] = molecular target: MET(M1250T) (Homo sapiens, UniProt P08581, M1250T)
Summary of the method: as §1

[13] = molecular target: PAK6 (Homo sapiens, UniProt Q9NQU5)
Summary of the method: as §1

[14] = molecular target: PIK3CA(E545K) (Homo sapiens, UniProt P42336, E545K)
Summary of the method: as §1

[15] = molecular target: PIK3CD (Homo sapiens, UniProt O00329)
Chain of PIK3CD (O00329 whole entry): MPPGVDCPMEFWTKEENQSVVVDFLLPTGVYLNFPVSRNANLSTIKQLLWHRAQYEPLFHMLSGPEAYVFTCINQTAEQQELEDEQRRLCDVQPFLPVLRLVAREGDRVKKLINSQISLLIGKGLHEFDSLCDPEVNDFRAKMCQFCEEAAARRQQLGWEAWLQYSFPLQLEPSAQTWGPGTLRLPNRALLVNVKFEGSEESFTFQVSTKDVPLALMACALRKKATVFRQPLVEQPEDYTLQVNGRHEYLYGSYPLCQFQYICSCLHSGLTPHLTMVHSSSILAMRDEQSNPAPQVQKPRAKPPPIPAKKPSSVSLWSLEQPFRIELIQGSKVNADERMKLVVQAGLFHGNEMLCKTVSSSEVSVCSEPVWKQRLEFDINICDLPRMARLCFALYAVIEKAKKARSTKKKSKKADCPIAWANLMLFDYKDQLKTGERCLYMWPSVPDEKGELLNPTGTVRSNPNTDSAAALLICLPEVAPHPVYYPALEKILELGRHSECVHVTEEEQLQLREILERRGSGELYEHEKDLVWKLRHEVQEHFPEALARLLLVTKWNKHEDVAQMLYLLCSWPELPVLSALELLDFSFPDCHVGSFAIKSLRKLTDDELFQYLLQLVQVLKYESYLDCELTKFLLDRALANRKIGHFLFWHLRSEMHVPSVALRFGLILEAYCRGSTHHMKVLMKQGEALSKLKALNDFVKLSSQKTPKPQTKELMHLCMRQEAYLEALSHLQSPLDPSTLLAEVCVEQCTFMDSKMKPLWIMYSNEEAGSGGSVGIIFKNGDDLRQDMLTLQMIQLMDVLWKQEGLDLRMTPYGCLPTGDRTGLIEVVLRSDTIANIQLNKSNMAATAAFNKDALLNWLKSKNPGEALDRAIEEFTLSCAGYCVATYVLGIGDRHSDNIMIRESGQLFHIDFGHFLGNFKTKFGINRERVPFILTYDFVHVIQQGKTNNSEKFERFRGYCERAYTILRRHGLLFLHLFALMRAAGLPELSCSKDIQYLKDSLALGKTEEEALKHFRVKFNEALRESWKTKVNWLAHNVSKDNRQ
Summary of the method: as §1

[16] = molecular target: PKMYT1 (Homo sapiens, UniProt Q99640)
Summary of the method: as §1

[17] = molecular target: PKN2 (Homo sapiens, UniProt Q16513)
Chain of PKN2 (Q16513 whole entry): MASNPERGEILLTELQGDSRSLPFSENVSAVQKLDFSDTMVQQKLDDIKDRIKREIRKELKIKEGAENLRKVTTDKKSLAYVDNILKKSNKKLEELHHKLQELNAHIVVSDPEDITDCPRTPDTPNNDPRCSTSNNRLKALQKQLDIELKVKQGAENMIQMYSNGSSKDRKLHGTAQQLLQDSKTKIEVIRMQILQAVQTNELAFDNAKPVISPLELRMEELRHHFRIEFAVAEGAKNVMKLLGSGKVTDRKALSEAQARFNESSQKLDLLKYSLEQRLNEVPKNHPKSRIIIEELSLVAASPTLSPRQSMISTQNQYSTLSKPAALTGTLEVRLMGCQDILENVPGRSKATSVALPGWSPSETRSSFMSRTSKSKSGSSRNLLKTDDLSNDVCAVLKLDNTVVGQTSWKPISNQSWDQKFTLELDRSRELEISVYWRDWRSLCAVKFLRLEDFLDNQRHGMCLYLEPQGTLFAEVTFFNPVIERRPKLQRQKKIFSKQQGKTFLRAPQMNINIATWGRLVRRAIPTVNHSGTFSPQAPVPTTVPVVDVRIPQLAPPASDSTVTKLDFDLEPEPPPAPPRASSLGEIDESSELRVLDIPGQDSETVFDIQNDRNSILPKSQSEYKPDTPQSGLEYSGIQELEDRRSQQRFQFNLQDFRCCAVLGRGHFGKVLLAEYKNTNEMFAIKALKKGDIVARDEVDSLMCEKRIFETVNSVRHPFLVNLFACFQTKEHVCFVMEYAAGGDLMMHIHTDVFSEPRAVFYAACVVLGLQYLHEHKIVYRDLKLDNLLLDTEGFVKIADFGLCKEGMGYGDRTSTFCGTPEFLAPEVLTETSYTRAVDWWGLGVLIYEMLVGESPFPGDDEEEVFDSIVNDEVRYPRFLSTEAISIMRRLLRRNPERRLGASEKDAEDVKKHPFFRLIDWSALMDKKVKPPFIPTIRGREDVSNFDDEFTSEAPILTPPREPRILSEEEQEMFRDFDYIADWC
Summary of the method: as §1

[18] = molecular target: PLK3 (Homo sapiens, UniProt Q9H4B4)
Chain of PLK3 (Q9H4B4 whole entry): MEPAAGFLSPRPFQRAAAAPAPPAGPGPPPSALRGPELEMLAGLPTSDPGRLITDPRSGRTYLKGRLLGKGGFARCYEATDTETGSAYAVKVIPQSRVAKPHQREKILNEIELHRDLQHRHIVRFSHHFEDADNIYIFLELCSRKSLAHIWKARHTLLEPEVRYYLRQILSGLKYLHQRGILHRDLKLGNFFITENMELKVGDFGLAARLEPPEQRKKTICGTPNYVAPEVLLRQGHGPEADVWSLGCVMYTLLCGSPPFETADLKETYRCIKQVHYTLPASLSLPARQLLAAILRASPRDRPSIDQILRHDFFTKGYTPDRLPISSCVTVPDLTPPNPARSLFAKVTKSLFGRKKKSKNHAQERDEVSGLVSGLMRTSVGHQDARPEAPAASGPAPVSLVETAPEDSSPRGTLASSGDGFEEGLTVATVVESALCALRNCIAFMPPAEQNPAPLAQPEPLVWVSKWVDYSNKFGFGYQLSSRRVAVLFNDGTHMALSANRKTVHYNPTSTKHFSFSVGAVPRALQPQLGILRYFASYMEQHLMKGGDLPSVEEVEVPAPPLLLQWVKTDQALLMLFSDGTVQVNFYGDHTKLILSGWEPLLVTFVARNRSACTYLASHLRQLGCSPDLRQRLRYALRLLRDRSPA
Summary of the method: as §1

[19] = molecular target: RIOK2 (Homo sapiens, UniProt Q9BVS4)
Summary of the method: as §1

[20] = molecular target: T4, RPS6KA4(Kin.Dom.1-N-terminal) (Homo sapiens, UniProt O75676)
T4 construct: Kin.Dom.1-N-terminal
Summary of the method: as §1

[21] = molecular target: T5, RSK1(Kin.Dom.2-C-terminal) (Homo sapiens, UniProt Q15418)
T5 construct: gene RPS6KA1; Kin.Dom.2-C-terminal
Summary of the method: as §1

[22] = molecular target: T6, RSK2(Kin.Dom.2-C-terminal) (Homo sapiens, UniProt P51812)
T6 construct: gene RPS6KA3; Kin.Dom.2-C-terminal
Summary of the method: as §1

[23] = molecular target: T7, RSK3(Kin.Dom.1-N-terminal) (Homo sapiens, UniProt Q15349)
T7 construct: gene RPS6KA2; Kin.Dom.1-N-terminal
Summary of the method: as §1

[24] = molecular target: SRPK3 (Homo sapiens, UniProt Q9UPE1)
Summary of the method: as §1

Chain of CAMK1G (Q96NX5 whole entry): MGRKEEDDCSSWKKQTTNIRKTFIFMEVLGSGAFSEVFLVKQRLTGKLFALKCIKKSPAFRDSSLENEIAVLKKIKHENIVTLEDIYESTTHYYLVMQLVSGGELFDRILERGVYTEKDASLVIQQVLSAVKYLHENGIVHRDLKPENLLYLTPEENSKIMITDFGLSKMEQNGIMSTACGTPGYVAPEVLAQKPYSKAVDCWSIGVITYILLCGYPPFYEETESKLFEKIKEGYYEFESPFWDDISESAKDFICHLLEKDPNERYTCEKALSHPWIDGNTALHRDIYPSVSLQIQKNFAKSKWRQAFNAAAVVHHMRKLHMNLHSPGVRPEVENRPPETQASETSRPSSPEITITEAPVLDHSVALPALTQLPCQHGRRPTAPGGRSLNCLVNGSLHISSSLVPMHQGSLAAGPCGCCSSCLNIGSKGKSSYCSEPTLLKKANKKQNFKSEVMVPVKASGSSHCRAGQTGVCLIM

With `C=CC(=O)Nc1cc(-n2c(=O)ccc3cnc4ccc(-n5cccn5)cc4c32)ccc1C` [CHMFL-BTK-11] the remaining binding at 1 µM [1] was 84%, the remaining binding at 1 µM [2] was 78% and the remaining binding at 1 µM [3] was 100%. For the same compound, the remaining binding at 1 µM [4] was 100%, the remaining binding at 1 µM [5] was 100% and the remaining binding at 1 µM [6] was 98%. For the same compound, the remaining binding at 1 µM [7] was 96%, the remaining binding at 1 µM [8] was 100% and the remaining binding at 1 µM [9] was 100%. The remaining binding at 1 µM [10] was 100%, the remaining binding at 1 µM [11] was 79% and the remaining binding at 1 µM [12] was 100%. The remaining binding at 1 µM [13] was 100%, the remaining binding at 1 µM [14] was 69% and the remaining binding at 1 µM [15] was 100%. For the same compound, the remaining binding at 1 µM [16] was 94%, the remaining binding at 1 µM [17] was 100% and the remaining binding at 1 µM [18] was 100%. For the same compound, the remaining binding at 1 µM [19] was 87%, the remaining binding at 1 µM [20] was 100% and the remaining binding at 1 µM [21] was 100%. It also gave a remaining binding at 1 µM [22] of 100%, a remaining binding at 1 µM [23] of 100% and a remaining binding at 1 µM [24] of 96%.
